Test results published in patent publication US20110251188A1, “ACENAPHTHO HETEROCYCLE COMPOUNDS, CYCLODEXTRIN INCLUSION COMPOUNDS AND COMPLEXES, AND USES IN THE MANUFACTURES OF BH3 PROTEIN ANALOGUE, BCL-2 FAMILY PROTEIN INHIBITORS THEREOF” (DALIAN UNIVERSITY OF TECHNOLOGY, priority 2008, published 2011).
Values after ≈ are worked out from the molar mass of the structure shown.

What was measured:
[1] = tested on: hepatoma carcinoma cells H22; test: in vivo tumor model, subcutaneous H22 tumor in Kunming mice; details: experimental group 2: peritoneal injection of DMSO solution, 0.3 mg/kg BW every other day, 10 days; tumor volume on the fortieth day
Procedure: The Kunming mice (in China) were randomly divided into groups, with 10 mice in each group. The cultivated hepatoma carcinoma cells H22 were inoculated subcutaneously in the oxter of the mice with 200 μL/mouse. After bearing the cancer cells for five days, the subcutaneous tumor was formed. Then the compound 3-thiomorpholinyl-8-oxo-8H-acenaphtho[1,2-b]pyrrole-9-carbonitrile and γ-cyclodextrin inclusion compound thereof were given by peritoneal injection, and the compound to be detected included by γ-cyclodextrin was given by oral administration. The detection conditions comprise:
Blank control group: the mice were not treated in any manner after the bearing cancer;
Control group (1): the mice were given a peritoneal injection of DMSO solution every other day after the bearing cancer, 10 days in total;
Control group (2): the mice were given a peritoneal injection of cyclodextrin solution every other day after the bearing cancer, 10 days in total;
Experimental group (1): the mice were given a peritoneal injection of DMSO solution equivalent to 0.03 mg/kg BW compound every other day after the bearing cancer, 10 days in total;
Experimental group (2): the mice were given a peritoneal injection of DMSO solution equivalent to 0.3 mg/kg BW compound every other day after the bearing cancer, 10 days in total;
Experimental group (3): the mice were given a peritoneal injection of inclusion compound water solution equivalent to 0.3 mg/kg BW compound every other day after the bearing cancer, 10 days in total;
Experimental group (4): the mice were given an intragastric administration of inclusion compounds water solution equivalent to 0.3 mg/kg BW compound every other day after the bearing cancer, 10 days in total;
During the experimental period, the length-diameter (a) and short diameter (b), which was perpendicular to the length-diameter, of the tumor were detected twice every week. The gross tumor volume was determined according to the formula: ½ab^2. The survival time of the animal was observed. The tumor inhibition rate was calculated by the tumor volume on the fortieth day.

[2] = phase solubility experiment (solubility in water before and after cyclodextrin inclusion or complexation); details: thermodynamic from solid, Solubility of compounds, Table 1, compound per se, before inclusion
[3] = tested on: MCF-7 cells; test: cytotoxicity depending on BAX/BAK, MTT, MCF-7 cells with or without BAX/BAK interfering plasmid; format: cell-based
Procedure: 3 ng of BAX/BAK interfering plasmid was transfected into MCF-7 cells by using calcium phosphate coprecipitation method, 24 hours later, the cells were collected. The expressions after the BAX and BAK proteins interfered with RNA was detected by Western, and the cell groups without plasmid transfection were treated similarly and were set as the control group. The transfected cells were inoculated in a 96-well plate (1×10^5 cells/well), the control experiment of the cell group without plasmid transfection was carried out in parallel. The compound 3-thiomorpholinyl-8-oxo-8 H-acenaphtho[1,2-b]pyrrole-9-carbonitrile to be detected was added thereinto according to the concentration gradient designed before the experiment. 48 hours later, the cellular vitality was detected by MTT. The experimental results were shown in FIG. 6, Gossypol as nonspecific BH3 analogue was treated in parallel.

| Compound | tumor inhibition rate [1] | solubility [2] | dependence of cytotoxicity on BAX/BAK [3] |
| --- | --- | --- | --- |
| N#CC1=C2C(=NC1=O)c1c(Sc3ccc(Br)cc3)ccc3c(Sc4ccc(Br)cc4)ccc2c13 [3,6-di(4-bromophenylthio)-8-oxo-8H-acenaphtho[1,2-b]pyrrole-9-carbonitrile] | about 78% | 0.16 µM (≈ 0.0967 µg/mL) | absolute dependence on BAX/BAK |
| N#CC1=C2C(=NC1=O)c1c(Sc3ccc(N)cc3)ccc3c(Sc4ccc(N)cc4)ccc2c13 [3,6-di(4-aminophenylthio)-8-oxo-8 H-acenaphtho[1,2-b]pyrrole-9-carbonitrile] | about 50% | 0.31 µM (≈ 0.148 µg/mL) | absolute dependence on BAX/BAK |
| N#CC1=C2C(=NC1=O)c1c(Sc3ccc(N)cc3)ccc3cccc2c13 [6-(4-aminophenylthio)-8-oxo-8H-acenaphtho[1,2-b]pyrrole-9-carbonitrile] | about 30% | 0.28 µM (≈ 0.099 µg/mL) | absolute dependence on BAX/BAK |
| N#CC1=C2C(=NC1=O)c1cccc3c(Sc4ccc(Br)cc4)ccc2c13 [3-(4-bromophenylthio)-8-oxo-8H-acenaphtho[1,2-b]pyrrole-9-carbonitrile] | about 40% | – | absolute dependence on BAX/BAK |
| N#CC1=C2C(=NC1=O)c1cccc3cccc2c13 [8-oxo-8H-acenaphtho[1,2-b]pyrrole-9-carbonitrile] | about 60% | 0.12 µM (≈ 0.0276 µg/mL) | absolute dependence on BAX/BAK |
